These are literature values, as cited in patent publication US20060211763A1, “Treatment with Statin and Omega-3 Fatty Acids and a Combination Product Thereof” (priority 2005, published 2006).

For series [1], the system named is patients with hyperlipidemia. The note with it: 900 or 1800 mg/day EPA ethyl ester for 3 months added to 5-20 mg/day pravastatin or 5 mg/day simvastatin; vs baseline monotherapy.
Series [2] has as its system patients with hyperlipemia. The note with it: 10 mg/day atorvastatin 5 weeks (vs baseline).
For series [3] the following is noted: in vivo.
The test system of series [4] is patients with hypercholesterolemia. The note with it: 40 mg/day lovastatin 6 weeks.
Where [5] appears, read: then plus 2 g/day Omacor 5 weeks (vs atorvastatin alone; insignificant).
[6] abbreviates: then combination with 6 g/day Omacor 6 weeks.

Regarding `CC/C=C\C/C=C\C/C=C\C/C=C\C/C=C\CCCC(=O)OCC` [EPA ethyl ester], in series [1], the HDL-C levels result was “significantly increased” and the Triglyceride levels result is given as “significantly reduced”.
Turning to `CC(C)c1c(C(=O)Nc2ccccc2)c(-c2ccccc2)c(-c2ccc(F)cc2)n1CC[C@@H](O)C[C@@H](O)CC(=O)O` [atorvastatin], in series [2] (then plus 2 g/day Omacor 5 weeks (vs atorvastatin alone)), the HDL-C levels entry is on record as “significantly increased”. Moreover, in series [2] (setting [5]), the LDL-C levels result was “significantly decreased” and the Triglyceride levels result was “significantly decreased”.
On to `CC(C)n1c(/C=C/C(O)CC(O)CC(=O)O)c(-c2ccc(F)cc2)c2ccccc21` (stereo not drawn) [fluvastatin], for which, in series [3], the Bioavailability result was “approximately 24%”.
Regarding `CC[C@H](C)C(=O)O[C@H]1C[C@@H](C)C=C2C=C[C@H](C)[C@H](CC[C@@H]3C[C@@H](O)CC(=O)O3)[C@H]21` [lovastatin], the “Degradation in alkaline environment” value is recorded as “converted to the acid form”. The HDL-C levels result in series [4] is recorded as “significant increases”. In series [4] (setting [6]), the LDL-C levels result was “significant decreases” and the Triglyceride levels entry is “significant decreases”. Besides, in series [3], the Rate of absorption entry is listed as “about 30%”.
As to `CC[C@H](C)C(=O)O[C@H]1C[C@H](O)C=C2C=C[C@H](C)[C@H](CC[C@@H](O)C[C@@H](O)CC(=O)O)[C@H]21` [pravastatin], the “Effect of food on absorption” value in series [3] was “best absorbed without food”.
